Values quoted from earlier work as cited in patent US12220423B2, “Compounds, derivatives, and analogs for cancer” (HYGIA PHARMACEUTICALS, LLC, priority 2018, dated 2025).

Test system: KRAS
Details: K-562 cells treated with 750 micromolars of IP6 for 60 min; p<0.05

In the case of `O=P(O)(O)O[C@H]1[C@H](OP(=O)(O)O)[C@@H](OP(=O)(O)O)[C@H](OP(=O)(O)O)[C@@H](OP(=O)(O)O)[C@H]1OP(=O)(O)O` [myo inositol hexaphosphate], the “down regulation of KRAS and other relevant genes” value is given as “down regulates KRAS and other relevant genes significantly”.
